# Columns and labels:
# FLT3 = biological target: T1, FLT3 (Homo sapiens, UniProt P36888); assay: TR-FRET kinase activity assay, FLT3; type: biochemical; details: ATP at Km, 60 minutes
# T1 sequence (P36888 27-993): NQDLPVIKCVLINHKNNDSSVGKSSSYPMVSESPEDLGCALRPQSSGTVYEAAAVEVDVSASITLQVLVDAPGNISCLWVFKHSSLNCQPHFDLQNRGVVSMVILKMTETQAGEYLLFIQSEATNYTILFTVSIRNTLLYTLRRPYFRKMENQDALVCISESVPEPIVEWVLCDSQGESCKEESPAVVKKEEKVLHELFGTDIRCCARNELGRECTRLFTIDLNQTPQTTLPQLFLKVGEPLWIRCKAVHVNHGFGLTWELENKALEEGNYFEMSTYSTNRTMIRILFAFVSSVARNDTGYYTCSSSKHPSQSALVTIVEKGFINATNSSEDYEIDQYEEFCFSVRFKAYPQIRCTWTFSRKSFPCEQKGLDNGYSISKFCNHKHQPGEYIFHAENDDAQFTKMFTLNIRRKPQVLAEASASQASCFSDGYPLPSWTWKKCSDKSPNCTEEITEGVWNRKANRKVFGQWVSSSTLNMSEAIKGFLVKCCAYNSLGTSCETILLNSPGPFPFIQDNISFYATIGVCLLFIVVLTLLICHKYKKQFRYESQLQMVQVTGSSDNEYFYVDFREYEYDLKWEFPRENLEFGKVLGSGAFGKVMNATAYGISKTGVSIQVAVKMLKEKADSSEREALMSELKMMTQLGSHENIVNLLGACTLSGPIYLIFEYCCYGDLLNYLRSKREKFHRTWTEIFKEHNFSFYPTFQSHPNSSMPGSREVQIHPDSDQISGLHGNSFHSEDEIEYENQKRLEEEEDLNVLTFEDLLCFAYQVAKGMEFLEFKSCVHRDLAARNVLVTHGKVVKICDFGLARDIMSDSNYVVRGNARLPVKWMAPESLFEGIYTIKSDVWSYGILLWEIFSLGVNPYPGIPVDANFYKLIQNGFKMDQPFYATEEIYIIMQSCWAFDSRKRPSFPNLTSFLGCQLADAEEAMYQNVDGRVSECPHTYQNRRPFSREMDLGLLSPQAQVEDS
# Outline: (§1)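 Compounds were tested against each kinase with ATP set at its own Km and a labelled tyrosine peptide substrate. Following one hour at room temperature in buffer containing 10 mM MgCl2 and 1 mM DTT, phosphorylated product was detected by Europium antibody TR-FRET after EDTA quench, and IC50 values were calculated.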
# MERTK = biological target: T2, MERTK (Homo sapiens, UniProt Q12866); assay: TR-FRET kinase activity assay, MERTK; type: biochemical
# T2 sequence (Q12866 21-999): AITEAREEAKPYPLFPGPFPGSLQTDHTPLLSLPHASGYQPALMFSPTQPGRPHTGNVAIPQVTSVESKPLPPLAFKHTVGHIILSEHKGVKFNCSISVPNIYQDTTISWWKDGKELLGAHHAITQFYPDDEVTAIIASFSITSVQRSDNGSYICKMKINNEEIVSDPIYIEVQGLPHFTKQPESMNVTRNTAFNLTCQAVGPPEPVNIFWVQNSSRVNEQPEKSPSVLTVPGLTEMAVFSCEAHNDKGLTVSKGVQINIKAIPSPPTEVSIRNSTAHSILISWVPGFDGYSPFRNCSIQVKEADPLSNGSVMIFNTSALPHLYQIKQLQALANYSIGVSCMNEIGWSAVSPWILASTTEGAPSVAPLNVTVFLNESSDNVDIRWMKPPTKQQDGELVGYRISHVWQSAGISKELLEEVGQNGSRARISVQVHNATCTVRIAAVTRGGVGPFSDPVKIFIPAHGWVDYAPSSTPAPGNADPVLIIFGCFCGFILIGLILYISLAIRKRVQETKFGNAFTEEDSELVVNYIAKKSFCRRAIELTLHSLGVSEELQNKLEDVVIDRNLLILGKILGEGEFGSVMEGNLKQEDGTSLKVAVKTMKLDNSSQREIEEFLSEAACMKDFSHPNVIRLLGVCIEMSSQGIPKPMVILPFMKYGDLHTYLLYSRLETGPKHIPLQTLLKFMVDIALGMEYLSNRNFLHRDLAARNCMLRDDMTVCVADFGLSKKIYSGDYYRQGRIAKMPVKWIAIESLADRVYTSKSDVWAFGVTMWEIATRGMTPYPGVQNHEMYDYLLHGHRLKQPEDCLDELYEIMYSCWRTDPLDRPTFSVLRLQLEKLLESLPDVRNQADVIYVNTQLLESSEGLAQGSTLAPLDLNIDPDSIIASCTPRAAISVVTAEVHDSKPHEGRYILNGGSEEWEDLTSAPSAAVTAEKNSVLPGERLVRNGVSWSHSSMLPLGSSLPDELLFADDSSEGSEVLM
# Outline: as §1
smiles,measurement,setting,value
COC[C@H](C)Nc1ncc2c(-c3cnn(C(C)(C)C(=O)N4CCOCC4)c3)cc([C@@H]3CCc4cn[nH]c4C3)n2n1 [Compound 594],IC50,FLT3,1 to 10 µM
same,IC50,"MERTK; TR-FRET activity assay, ATP at Km, 60 minutes, read-out: Mer IC50",≤ 0.1 µM
same,FLT3/Mer ratio (FLT3 IC50/Mer IC50),MERTK; ratio calculated as FLT3 IC50/Mer IC50,+++ (“+++” represents a ratio of >100)

# Source: patent publication US11040981B2, “Pyrrolotriazine compounds and methods of inhibiting TAM kinases” (Syros Pharmaceuticals, Inc., priority 2017, dated 2021)
